# Reference: ChEMBL document CHEMBL1201862, “PubChem BioAssay data set” (2004)
# The source made the active and inactive calls.
# Columns and labels:
# [1] = target: SUMO E1/E2 (Homo sapiens, UniProt P63279+Q9UBE0+Q9UBT2); experiment: SAR analysis of SUMOylation using HTRF in an in-Vitro dose response assay. [Related pubchem assays (depositor defined):AID2006, AID2011, AID2018, AID2069, AID2658]; assay type: functional
# [2] = decrease of insulin promoter-GFP reporter – imaging, high-content screening, mouse beta cells (AID 1628); assay type: functional; details: MIN6
# [3] = MIN6 cell viability loss – mouse insulinoma, cytotoxicity control, dose response (AID 2122); assay type: functional;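 also: confirmatory high-throughput counterscreen run to flag cytotoxic compounds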
# [4] = system: HEK293; experiment: cells; details: Homo sapiens
# [5] = system: HEK293; experiment: cells; details: Homo sapiens; remark: listed apart in the source
# [6] = system: HEK293; experiment: inhibition of NOD1-driven NF-kB reporter – cell-based, luminescence, uHTS, primary screen (AID 1578); assay type: functional; details: Homo sapiens
# [7] = target: Peroxisome proliferator-activated receptor gamma/Nuclear receptor coactivator 1 (Homo sapiens, UniProt P37231); experiment: (§1) TR-FRET dose response biochemical High Throughput Screening assay for agonists of the steroid receptor coactivator 1 (SRC-1) recruitment by the peroxisome proliferator-activated receptor gamma (PPAR gamma): non-selective agonists. [Related pubchem assays (depositor defined):AID1300, AID1808, AID504735, AID631]; assay type: protein assay
# [8] = system: HEK293; experiment: cells; assay type: functional, cell-based; details: Homo sapiens
# [9] = target: Peroxisome proliferator-activated receptor gamma/Nuclear receptor coactivator 3 (Homo sapiens, UniProt P37231); experiment: as §1, with “3 (SRC-3)” for “1 (SRC-1)”, “assays: 1301 (Confirmation screen.), 1048 (Primary screen.)]” for “assays (depositor defined):AID1300, AID1808, AID504735, AID631]”; assay type: functional
# [10] = system: HEK293; experiment: cells; assay type: functional, cell-based; details: Homo sapiens; remark: listed apart in the source
# [11] = target: Nucleotide-binding oligomerization domain-containing protein 2 (Homo sapiens, UniProt Q9HC29); experiment: inhibition of NOD2-driven NF-kB reporter – cell-based, luminescence, uHTS, HEK293 (AID 1566); assay type: functional
# [12] = system: HEK293; experiment: NOD2 signaling inhibitors in MDP-stimulated cells, cell-based, uHTS, luminescence (AID 2001); assay type: functional; details: Homo sapiens
# [13] = system: HEK293; experiment: cells; assay type: functional, cell-based; details: Homo sapiens; remark: listed apart in the source
# [14] = target: Peroxisome proliferator-activated receptor gamma/Nuclear receptor coactivator 2 (Homo sapiens, UniProt P37231); experiment: TR-FRET dose response biochemical High Throughput Screening assay for agonists of the steroid receptor coactivator 2 (SRC-2) recruitment by the peroxisome proliferator-activated receptor gamma (PPAR gamma): non-selective agonists. [Related pubchem assays: 1297, 1032 ]; assay type: functional
# [15] = target: Neurotensin receptor type 1 (Homo sapiens, UniProt P30989); assay type: functional;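 also: Image-based confirmatory dose-response assay measuring agonist activity at NTR1; NTR1-expressing U2OS osteosarcoma cells imaged for beta-arrestin GFP spot formation; agonist potency where compounds increase beta-arrestin recruitment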
# [16] = blockers of HIV-1 envelope-mediated cell-cell fusion – cherry-pick, dose response (AID 652057); assay type: functional, cell-based
# [17] = viability loss in CEM21 cells – cell-based, CellTiter-Glo luminescence, cherry-picked, cytotoxicity control for viral fusion inhibitor project, dose response (AID 652042); assay type: functional;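 also: potency for signal decrease meaning cytotoxicity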
# [18] = HIV-1 AD8 envelope cell-cell fusion blockers – cherry-pick, dose response (AID 652062); assay type: functional, cell-based;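 also: luciferase signal from cell-cell fusion driven by HIV-1 clade B AD8 Env; potency is for inhibitors of fusion seen as a drop in luminescence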
# [19] = target: T1, Short transient receptor potential channel 4 (Mus musculus, UniProt Q9QUQ5); experiment: block of DAMGO-driven TRPC4 calcium entry – cell-based, HEK293 TRPC4/mu-opioid, Fluo-4 calcium, dose response (AID 434942); assay type: functional;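 also: potency of inhibitors blocking the TRPC4 calcium response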
# T1 sequence (Q9QUQ5 whole entry): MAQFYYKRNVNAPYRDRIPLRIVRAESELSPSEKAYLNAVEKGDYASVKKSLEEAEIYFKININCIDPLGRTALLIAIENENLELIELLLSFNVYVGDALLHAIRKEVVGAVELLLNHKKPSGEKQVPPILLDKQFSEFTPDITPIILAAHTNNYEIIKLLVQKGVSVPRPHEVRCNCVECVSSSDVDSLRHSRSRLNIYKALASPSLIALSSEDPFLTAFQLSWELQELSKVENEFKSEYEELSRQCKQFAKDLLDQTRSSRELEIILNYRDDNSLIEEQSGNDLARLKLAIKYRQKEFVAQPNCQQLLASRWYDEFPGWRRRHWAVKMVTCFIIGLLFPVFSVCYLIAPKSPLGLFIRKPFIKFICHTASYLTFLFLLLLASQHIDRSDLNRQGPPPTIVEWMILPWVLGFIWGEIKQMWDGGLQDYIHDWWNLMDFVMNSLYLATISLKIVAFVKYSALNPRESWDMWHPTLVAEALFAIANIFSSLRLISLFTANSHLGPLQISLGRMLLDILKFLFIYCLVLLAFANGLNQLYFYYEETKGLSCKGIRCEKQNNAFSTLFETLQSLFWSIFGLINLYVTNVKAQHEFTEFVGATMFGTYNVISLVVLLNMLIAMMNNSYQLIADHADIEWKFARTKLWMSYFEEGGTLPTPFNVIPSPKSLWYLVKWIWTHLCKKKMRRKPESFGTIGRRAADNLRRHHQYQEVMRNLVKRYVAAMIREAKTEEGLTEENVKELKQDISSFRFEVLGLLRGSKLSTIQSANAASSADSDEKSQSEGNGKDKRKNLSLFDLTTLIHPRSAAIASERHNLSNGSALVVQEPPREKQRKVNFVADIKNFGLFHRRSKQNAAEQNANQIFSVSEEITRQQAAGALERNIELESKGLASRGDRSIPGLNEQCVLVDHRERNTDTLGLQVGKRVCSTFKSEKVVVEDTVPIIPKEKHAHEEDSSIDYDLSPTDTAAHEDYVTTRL
# [20] = target: T2, Fatty acid synthase (Homo sapiens, UniProt P49327); experiment: inhibition of human FAS-TE enzyme activity – biochemical, endpoint fluorescence intensity, uHTS hits, dose response (AID 624327); assay type: functional;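 also: fluorescence from hydrolysis of an O-methyl fluorescein acyl ester substrate by the enzyme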
# [21] = target: T2, Fatty acid synthase; experiment: inhibition of human FAS-TE enzyme activity – biochemical, kinetic fluorescence intensity, dose response (AID 624326); assay type: functional;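 also: rate of fluorescence rise from hydrolysis of a fluorogenic O-methyl fluorescein ester substrate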
# [22] = system: Streptococcus sp. 'group A'; experiment: Streptococcus pyogenes SK(-)GAS viability under kanamycin – luminescence, BacTiterGlo, confirmation, counter-screen for streptokinase expression inhibitor project, dose response (AID 1900); assay type: functional, organism-based
# [23] = target: T3, Streptokinase A (Streptococcus pyogenes serotype M1, UniProt P10520); experiment: viability-normalized secreted streptokinase activity reduction – plasminogen activation absorbance, OD405, dose response (AID 1914); assay type: functional, Streptococcus pyogenes M1 GAS;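 also: secreted streptokinase activity via plasminogen activation per viability signal from cell pellet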
# T3 sequence (P10520 whole entry): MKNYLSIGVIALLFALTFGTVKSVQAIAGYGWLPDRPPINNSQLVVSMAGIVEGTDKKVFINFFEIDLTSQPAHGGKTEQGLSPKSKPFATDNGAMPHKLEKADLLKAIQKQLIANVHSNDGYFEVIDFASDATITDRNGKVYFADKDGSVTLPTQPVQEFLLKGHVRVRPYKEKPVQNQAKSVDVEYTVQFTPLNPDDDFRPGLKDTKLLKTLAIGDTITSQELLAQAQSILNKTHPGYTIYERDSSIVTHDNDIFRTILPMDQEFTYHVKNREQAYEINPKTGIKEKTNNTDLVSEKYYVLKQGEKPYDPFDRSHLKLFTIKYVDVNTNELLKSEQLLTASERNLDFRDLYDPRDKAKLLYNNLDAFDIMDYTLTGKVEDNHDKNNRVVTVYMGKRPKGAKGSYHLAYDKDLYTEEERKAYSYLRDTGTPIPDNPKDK
# [24] = target: T4, Calpain-2 catalytic subunit (Sus scrofa, UniProt P43367); experiment: m-calpain protease blockers, concentration series – biochemical, fluorogenic peptide substrate, dose response (AID 1420); assay type: functional
# T4 sequence (P43367 whole entry): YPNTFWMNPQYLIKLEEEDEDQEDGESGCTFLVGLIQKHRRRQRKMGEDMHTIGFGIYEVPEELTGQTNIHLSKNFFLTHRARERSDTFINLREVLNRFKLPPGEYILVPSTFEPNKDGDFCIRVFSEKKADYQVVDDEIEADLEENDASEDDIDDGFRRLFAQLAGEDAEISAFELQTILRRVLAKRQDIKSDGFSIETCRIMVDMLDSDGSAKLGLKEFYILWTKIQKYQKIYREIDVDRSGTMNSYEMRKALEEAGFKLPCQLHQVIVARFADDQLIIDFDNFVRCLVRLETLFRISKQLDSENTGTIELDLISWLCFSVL
# [25] = system: Streptococcus; experiment: GAS UMAA2166 growth inhibition – luminescence, BacTiterGlo, counter-screen for streptokinase expression inhibitor project, dose response (AID 1915); assay type: functional, organism-based;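 also: potency for reduction of bacterial viability or growth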
# [26] = target: T5, Voltage-gated N-type calcium channel alpha-1B subunit/Amyloid beta A4 precursor protein-binding family A member 1 (Homo sapiens, UniProt Q00975+Q02410); experiment: disruptors of Mint-PDZ/N-type channel peptide interaction – biochemical, HTRF, set 2, SAR follow-up (AID 434980); assay type: functional
# [27] = target: T5, Voltage-gated N-type calcium channel alpha-1B subunit/Amyloid beta A4 precursor protein-binding family A member 1; experiment: disruptors of Mint-PDZ/N-type channel peptide interaction – biochemical, HTRF, SAR follow-up (AID 2489); assay type: functional
# [28] = target: Cytochrome P450 2D6 (Homo sapiens, UniProt P10635);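 also: CYP2D6 member of a cytochrome P450 panel assay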
# [29] = system: Escherichia coli; experiment: microbe, parasite or virus in culture
# [30] = target: Cytochrome P450 3A4 (Homo sapiens, UniProt P08684);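 also: CYP3A4 tested as one member of a cytochrome P450 panel screen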
# [31] = target: Glucose-6-phosphate 1-dehydrogenase (Homo sapiens, UniProt P11413); experiment: inhibition of Homo sapiens G6PD, dose series – biochemical, fluorescence, selectivity assay for P. falciparum G6PD inhibitor project, dose response (AID 504792); assay type: functional
# [32] = target: T6, SUMO-activating enzyme (Homo sapiens, UniProt Q9UBT2); experiment: blockers of UBC9-mediated SUMO conjugation – biochemical, AlphaScreen, SUMOylation inhibitor project, confirmation (AID 2018); assay type: functional
# [33] = target: T6, SUMO-activating enzyme; experiment: blockers of SAE1/SAE2–UBC9 SUMO transfer – biochemical, HTRF, uHTS, primary screen (AID 2006); assay type: protein-complex assay
# [34] = target: T7, Carboxy-terminal domain RNA polymerase II polypeptide A small phosphatase 1 (Homo sapiens, UniProt Q9GZU7); experiment: CTDSP1 inhibitors, concentration-response, biochemical, absorbance readout, ultra-high-throughput screen actives (AID 540297); assay type: functional
# T7 sequence (Q9GZU7 whole entry): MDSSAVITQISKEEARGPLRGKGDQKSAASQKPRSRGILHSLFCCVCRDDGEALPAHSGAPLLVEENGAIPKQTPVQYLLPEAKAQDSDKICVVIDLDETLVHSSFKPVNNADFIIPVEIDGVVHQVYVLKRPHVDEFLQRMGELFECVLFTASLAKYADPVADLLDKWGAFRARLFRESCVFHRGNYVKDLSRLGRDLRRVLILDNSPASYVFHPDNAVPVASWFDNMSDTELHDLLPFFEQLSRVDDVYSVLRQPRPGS
# Sequence of SUMO E1/E2 (Q9UBE0 whole entry): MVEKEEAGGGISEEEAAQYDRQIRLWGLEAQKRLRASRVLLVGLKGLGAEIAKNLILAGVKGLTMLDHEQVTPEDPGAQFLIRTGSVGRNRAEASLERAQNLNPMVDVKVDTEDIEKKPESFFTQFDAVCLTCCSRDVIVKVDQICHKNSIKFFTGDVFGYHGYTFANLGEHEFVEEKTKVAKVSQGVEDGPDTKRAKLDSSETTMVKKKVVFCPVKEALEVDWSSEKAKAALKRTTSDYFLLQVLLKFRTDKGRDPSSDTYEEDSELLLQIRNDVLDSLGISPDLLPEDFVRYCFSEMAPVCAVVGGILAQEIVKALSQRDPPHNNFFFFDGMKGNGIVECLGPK
# Sequence of SUMO E1/E2 (Q9UBT2 whole entry): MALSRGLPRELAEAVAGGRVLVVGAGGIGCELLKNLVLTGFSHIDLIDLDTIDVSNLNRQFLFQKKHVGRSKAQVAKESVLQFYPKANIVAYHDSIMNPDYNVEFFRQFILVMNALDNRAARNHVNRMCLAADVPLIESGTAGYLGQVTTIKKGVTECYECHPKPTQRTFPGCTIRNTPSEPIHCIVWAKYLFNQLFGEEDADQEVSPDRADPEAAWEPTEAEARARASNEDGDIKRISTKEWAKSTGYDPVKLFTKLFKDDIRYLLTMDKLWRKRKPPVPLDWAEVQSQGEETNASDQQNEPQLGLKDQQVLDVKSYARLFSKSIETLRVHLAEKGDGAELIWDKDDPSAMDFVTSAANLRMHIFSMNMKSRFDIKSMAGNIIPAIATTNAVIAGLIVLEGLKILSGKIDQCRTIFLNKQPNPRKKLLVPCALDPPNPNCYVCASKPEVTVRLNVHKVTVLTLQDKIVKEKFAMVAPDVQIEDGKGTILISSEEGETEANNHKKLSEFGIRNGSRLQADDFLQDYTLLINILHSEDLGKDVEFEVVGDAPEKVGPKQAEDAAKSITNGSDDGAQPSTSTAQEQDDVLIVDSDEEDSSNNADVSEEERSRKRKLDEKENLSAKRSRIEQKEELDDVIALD
# Sequence of SUMO E1/E2 (P63279 whole entry): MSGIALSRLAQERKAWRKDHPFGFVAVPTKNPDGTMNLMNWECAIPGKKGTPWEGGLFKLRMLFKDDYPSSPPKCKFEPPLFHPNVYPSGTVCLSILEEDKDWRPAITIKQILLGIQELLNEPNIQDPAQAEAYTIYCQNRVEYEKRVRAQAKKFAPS
# Sequence of Nucleotide-binding oligomerization domain-containing protein 2 (Q9HC29 whole entry, the tested form may be a part): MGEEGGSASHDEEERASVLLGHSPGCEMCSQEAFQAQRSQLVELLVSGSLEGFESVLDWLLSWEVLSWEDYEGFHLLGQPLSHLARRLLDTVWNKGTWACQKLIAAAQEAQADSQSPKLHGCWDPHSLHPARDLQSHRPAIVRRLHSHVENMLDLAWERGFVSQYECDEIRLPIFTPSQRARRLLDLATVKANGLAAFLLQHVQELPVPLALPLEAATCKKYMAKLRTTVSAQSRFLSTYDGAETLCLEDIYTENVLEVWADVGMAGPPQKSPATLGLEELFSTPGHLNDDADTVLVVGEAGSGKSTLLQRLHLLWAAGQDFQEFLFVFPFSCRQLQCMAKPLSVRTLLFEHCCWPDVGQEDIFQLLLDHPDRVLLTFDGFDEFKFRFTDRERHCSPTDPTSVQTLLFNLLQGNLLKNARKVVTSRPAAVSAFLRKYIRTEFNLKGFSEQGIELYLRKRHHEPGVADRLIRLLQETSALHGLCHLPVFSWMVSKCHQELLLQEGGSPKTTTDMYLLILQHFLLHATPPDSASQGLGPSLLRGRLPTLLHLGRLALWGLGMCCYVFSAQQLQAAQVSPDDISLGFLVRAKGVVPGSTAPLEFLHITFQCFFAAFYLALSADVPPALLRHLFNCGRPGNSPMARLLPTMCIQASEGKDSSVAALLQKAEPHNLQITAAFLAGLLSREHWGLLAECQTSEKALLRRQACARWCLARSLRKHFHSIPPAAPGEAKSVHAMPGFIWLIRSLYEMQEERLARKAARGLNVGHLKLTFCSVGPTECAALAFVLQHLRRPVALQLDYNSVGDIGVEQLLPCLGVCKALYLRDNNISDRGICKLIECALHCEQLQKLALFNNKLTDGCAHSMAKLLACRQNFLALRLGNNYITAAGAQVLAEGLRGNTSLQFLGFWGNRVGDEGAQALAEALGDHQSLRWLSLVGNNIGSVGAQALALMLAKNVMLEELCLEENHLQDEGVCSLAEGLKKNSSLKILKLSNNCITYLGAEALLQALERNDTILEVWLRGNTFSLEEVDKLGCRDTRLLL
# Sequence of Cytochrome P450 2D6 (P10635 whole entry): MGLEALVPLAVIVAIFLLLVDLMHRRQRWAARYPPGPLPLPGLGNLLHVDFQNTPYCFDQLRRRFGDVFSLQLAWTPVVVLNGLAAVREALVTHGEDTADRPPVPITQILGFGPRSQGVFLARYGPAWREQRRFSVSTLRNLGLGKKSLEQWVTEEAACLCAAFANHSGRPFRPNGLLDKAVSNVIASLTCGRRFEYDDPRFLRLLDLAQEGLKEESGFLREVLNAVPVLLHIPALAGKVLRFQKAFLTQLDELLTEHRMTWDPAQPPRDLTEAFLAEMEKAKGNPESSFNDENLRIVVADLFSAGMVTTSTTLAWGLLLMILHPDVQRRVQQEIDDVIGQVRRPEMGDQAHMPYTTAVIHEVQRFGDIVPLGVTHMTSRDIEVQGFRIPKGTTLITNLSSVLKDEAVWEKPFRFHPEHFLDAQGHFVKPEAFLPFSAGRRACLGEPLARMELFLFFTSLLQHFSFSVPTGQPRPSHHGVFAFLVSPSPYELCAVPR
# T6 sequence (Q9UBE0 whole entry): as the sequence (Q9UBE0 whole entry) above
# T6 sequence (Q9UBT2 whole entry): as the sequence (Q9UBT2 whole entry) above
# Sequence of Neurotensin receptor type 1 (P30989 whole entry, the tested form may be a part): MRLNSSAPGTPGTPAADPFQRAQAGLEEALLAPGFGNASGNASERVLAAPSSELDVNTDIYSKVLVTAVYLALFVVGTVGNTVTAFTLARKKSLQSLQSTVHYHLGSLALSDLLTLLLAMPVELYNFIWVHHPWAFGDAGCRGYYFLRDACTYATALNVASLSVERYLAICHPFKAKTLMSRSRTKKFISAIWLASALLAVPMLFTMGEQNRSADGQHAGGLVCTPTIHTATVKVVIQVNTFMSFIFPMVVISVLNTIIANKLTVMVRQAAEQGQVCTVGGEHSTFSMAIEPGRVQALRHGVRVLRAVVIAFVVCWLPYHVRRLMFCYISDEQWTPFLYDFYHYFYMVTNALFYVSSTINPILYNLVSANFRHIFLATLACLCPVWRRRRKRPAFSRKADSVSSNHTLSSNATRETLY
# Sequence of Cytochrome P450 3A4 (P08684 whole entry): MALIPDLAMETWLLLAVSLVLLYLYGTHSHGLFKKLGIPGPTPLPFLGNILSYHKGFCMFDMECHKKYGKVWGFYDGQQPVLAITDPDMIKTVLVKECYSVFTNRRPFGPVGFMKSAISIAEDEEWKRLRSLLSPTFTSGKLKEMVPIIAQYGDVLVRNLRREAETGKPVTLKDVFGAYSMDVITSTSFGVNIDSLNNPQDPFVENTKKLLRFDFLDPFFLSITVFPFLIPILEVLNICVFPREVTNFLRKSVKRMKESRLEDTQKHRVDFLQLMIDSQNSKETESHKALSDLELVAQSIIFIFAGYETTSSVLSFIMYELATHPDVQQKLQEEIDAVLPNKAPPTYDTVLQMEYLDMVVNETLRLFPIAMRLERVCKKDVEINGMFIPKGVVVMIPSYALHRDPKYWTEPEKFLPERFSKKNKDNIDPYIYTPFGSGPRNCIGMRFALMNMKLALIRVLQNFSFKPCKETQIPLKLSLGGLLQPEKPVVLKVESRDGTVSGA
# Sequence of Glucose-6-phosphate 1-dehydrogenase (P11413 whole entry): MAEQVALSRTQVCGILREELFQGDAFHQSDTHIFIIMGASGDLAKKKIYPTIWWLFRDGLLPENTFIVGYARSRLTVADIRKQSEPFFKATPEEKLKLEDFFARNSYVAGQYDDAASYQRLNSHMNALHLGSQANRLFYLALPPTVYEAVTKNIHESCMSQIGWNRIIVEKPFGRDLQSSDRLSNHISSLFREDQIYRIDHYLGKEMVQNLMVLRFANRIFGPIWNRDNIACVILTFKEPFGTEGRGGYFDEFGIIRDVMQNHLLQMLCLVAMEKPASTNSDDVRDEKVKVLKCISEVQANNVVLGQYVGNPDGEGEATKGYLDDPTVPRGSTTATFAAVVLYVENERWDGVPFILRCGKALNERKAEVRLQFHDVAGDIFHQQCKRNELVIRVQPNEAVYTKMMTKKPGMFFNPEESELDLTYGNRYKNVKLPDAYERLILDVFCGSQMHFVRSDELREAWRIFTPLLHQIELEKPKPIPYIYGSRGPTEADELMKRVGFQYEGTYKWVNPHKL
smiles,measurement,setting,value
Nc1ccc2c(c1)C1C=CCC1C(c1ccccc1)N2 (stereo not drawn),IC50,[1],> 100 µM (inactive)
O=C(CN1CCN(C(c2ccccc2)c2ccccc2)CC1)NC(=O)NCc1ccco1,IC50,[2],0.468 µM (active)
same,IC50,[3],0.439 µM (active)
Cc1ccc(OCCn2cnc3c(N)ncnc32)cc1,EC50,[4],> 59.6 µM (inactive)
same,EC50,[5],> 59.6 µM (inactive)
O=C(CSc1ncnc2c1oc1ccccc12)N1CCCc2ccccc21,EC50,[6],5.08 µM (active)
same,EC50,[7],> 79.4 µM (inactive)
same,IC50,[8],4.86 µM (active)
same,EC50,[9],> 79.4 µM (not active)
same,IC50,[10],9.45 µM (active)
same,EC50,[11],11.9 µM (active)
same,IC50,[12],5.25 µM (inactive)
same,IC50,[13],> 20 µM (inactive)
same,EC50,[14],85.1 µM (not active)
CCc1nc2ccccc2c(C(=O)OCC(=O)Nc2cccc(S(=O)(=O)N3CCOCC3)c2)c1C,EC50,[6],5.64 µM (active)
same,IC50,[8],4.01 µM (active)
same,IC50,[10],9.75 µM (active)
same,EC50,[11],12.8 µM (active)
same,IC50,[12],5.81 µM (inactive)
same,IC50,[13],> 20 µM (inactive)
same,EC50,[15],10.2 µM (active)
same,AC50,[16],44.6 µM (active)
same,AC50,[17],31.5 µM (active)
same,AC50,[18],13.9 µM (active)
COC(=O)c1ccc(CSc2ncnc3c2sc2nc(N4CCOCC4)c4c(c23)CCCC4)o1,EC50,[4],> 59.7 µM (inactive)
same,EC50,[5],> 59.7 µM (inactive)
O=c1c2ccccc2nc(SCc2ccc([N+](=O)[O-])cc2)n1CCCO,EC50,[19],0.376 µM (active)
same,IC50,[20],10.2 µM (active)
same,IC50,[21],5.59 µM (active)
CC1CCc2nc(NC(=O)CSc3nc4ccccc4o3)sc2C1 (stereo not drawn),EC50,[6],5.78 µM (active)
same,IC50,[8],3.36 µM (active)
same,IC50,[10],15.4 µM (active)
same,EC50,[11],> 20 µM (inactive)
same,IC50,[12],5.28 µM (active)
same,IC50,[13],> 20 µM (inactive)
CCOC(=O)c1cnc(-n2nc(C)cc2C)nc1Nc1ccc(C)cc1,IC50,[2],2.56 µM (active)
same,EC50,[22],3.44 µM (active)
same,IC50,[3],7.89 µM (active)
same,EC50,[23],> 150 µM (not active)
same,IC50,[24],5.74 µM (not active)
same,EC50,[25],> 150 µM (not active)
O=C(COC(=O)c1cc(-c2ccco2)nc2ccccc12)NCc1ccc(F)cc1,IC50,[1],4.64 µM (active)
same,IC50,[26],11.1 µM (active)
same,IC50,[27],30.4 µM (active)
Cc1sc2ccccc2[n+]1CCC(=O)O,AC50,[28],inconclusive
O=C(NCc1ccccc1)c1ccc(Br)o1,AC50,[29],42.9 µM (active)
C[C@@H]1/C=C\CC(=O)OC[C@H]2O[C@@H](C=C[C@@H]2O)[C@H](C)/C=C\CC(=O)OC1,AC50,[30],5.01 µM (inconclusive)
same,AC50,[28],inconclusive
Cc1cc(O)nc(N/N=C/c2c(C)nn(-c3ccccc3)c2Cl)n1,IC50,[31],> 80 µM (inactive)
COc1ccccc1NC(=O)Cn1c(O)c(N=NC(=O)c2ccccc2O)c2ccccc21,IC50,[32],6.52 µM (active)
same,IC50,[33],23.8 µM (active)
same,IC50,[1],71.1 µM (active)
same,IC50,[34],2.74 µM (active)
